System: Mycosphaerella graminicola (Septoria tritici)
Assay: Septoria tritici leaf spot on wheat, preventative foliar spray test
Type: in vivo
Description: Mycosphaerella graminicola (Septoria tritici)/Wheat/Preventative (Septoria tritici Leaf Spot on Wheat)
The isopyrazam is formulated as an emulsion concentrate formulation and mixed with water to form a stock solution and ultrasonically agitated in order to achieve homogeneous distribution. Spray solutions are made up from the stock solution by dilution in water/isopropanol (10% isopropanol v/v), with abscisic acid added where needed as a tank mix to the diluted stock solution, and mechanically stirred just before spraying. Foliar application is at 200 L/ha using an application device spraying with a single nozzle (Lechler type) 60 cm above the plants. Typically two-week old wheat plants cv. Riband are sprayed with the spray solution in the spray chamber of the application device. The test plants are inoculated by spraying a spore suspension on them one day after application. After an incubation period of 1 day at typically 22° C./21° C. (day/night) and 95% rh, the inoculated test plants are kept at typically 22° C./21° C. (day/night) and 70% rh in a greenhouse. Percentage efficacy is assessed by direct visual comparison to untreated check plants when an appropriate level of disease appears on the untreated checks (typically 14-19 days after application).

SMILES | % Disease Control (abscisic acid 0.0025 % w/v alone, foliar spray 200 L/ha, wheat) [%] | % Disease Control (abscisic acid 0.0238 % w/v alone, foliar spray 200 L/ha, wheat) [%] | % Disease Control (isopyrazam 2.44 mg/ml alone) [%] | % Disease Control (isopyrazam 9.77 mg/ml alone) [%] | % Disease Control (isopyrazam 39.06 mg/ml alone) [%] | % Disease Control (isopyrazam 156.25 mg/ml alone) [%] | % Disease Control (isopyrazam 625.00 mg/ml alone) [%]
CC1=CC(=O)CC(C)(C)[C@@]1(O)/C=C/C(C)=C\C(=O)O [Abscisic acid] | 0 | 0 | – | – | – | – | –
CC(C)C1C2CCC1c1c(NC(=O)c3cn(C)nc3C(F)F)cccc12 (stereo not shown) [Isopyrazam] | – | – | 3 | 10 | 50 | 67 | 80

Reference: patent publication US8980792B2, “Compositions comprising abscisic acid and a fungicidally active compound” (Syngenta Participations AG, priority 2010, dated 2015)
